Where no end group is shown, it is not given here.

This is an account of results in patent US20220213170A1, “PEPTIDES” (Hubro Therapeutics AS, priority 2019, published 2022).

Data set [1] concerns tumour infiltrating Th cells in MSI+ tumours. Conditions: cited from earlier work.
Data set [2] has as its system T cells (PBMC) from healthy donors. The experiment in a line: T-cell proliferation (3H-thymidine uptake, stimulation index) after in vitro stimulation of PBMC with fsp2+fsp4 cocktail. The class given is cell-based, human. Conditions: for Immune response of Donor 3: Donor 3, stimulation with fsp2 and fsp4 mixture, FIG. 11; for Immunogenicity relative to fsp3 and fsp4: FIGS. 10 and 11, peptides with wild-type TGFβR2 amino acids vs without; for Immunogenicity (T cell proliferation, stimulation index): first and second round of stimulation with fsp2+fsp4, 10 μM test peptide, FIGS. 10-12. Here is the method: Fresh buffy coats from four healthy donors were obtained from a blood bank.
Peripheral blood mononuclear cells (PBMC) isolated from fresh buffy coats from four healthy donors were counted and suspended in DC medium to 15*10^6 cells/ml, and subsequently diluted with DC-medium to 4*10^6 cells/ml (Table 6).
Four 24-well plates were used for each donor, with 4*10^6 cells per well (each well has a volume of 1 ml).
Peptide cocktail: Solution of peptides fsp2+fsp4, containing 10 μM of each peptide. 40 μl peptide solution was added to each well.
The plates were incubated in a cell incubator for 14 days (37° C., 5% CO2). IL-2 and IL-7 were added on day 3. The cells were inspected daily.
Test peptides: fsp2+fsp4 (SEQ ID NOs: 5 and 7), fsp1 (SEQ ID NO: 4), fsp2 (SEQ ID NO: 5), fsp3 (SEQ ID NO: 6), fsp4 (SEQ ID NO: 7), fsp5 (SEQ ID NO: 3).
Cells and reagents were added to plate wells (in triplicate) as described in Tables 7 and 8 below. The total volume added to each well was 0.20 ml. • T cells (PBMC): 50 000 cells/well (0.25*10^6 cells/ml) • APC: Irradiated (30Gy, 8 minutes) autologous feeder cells: 50 000 cells/well • Peptide (fspx): […] peptide/well (each peptide), concentration: 10 μM peptide. (fsp was dissolved in DMSO before dilution to correct concentration)
The plates were incubated in a cell incubator for 48 hours (37° C., 5% CO2).
After incubation for 48 hours, 20 μl 3H-tThymidine solution (5 μCi/ml) was added to each well and the plates were incubated for approximately 17 hours (37° C., 5% CO2).
After 17 hours the cells were harvested (Unifilters) and dried on the filters at 45° C. until completely dry. After covering the bottom of the Unifilters with adhesive covers (delivered with the Unifilters) 25 μl micro scintillation liquid was added to each well, the plate was covered with TopSeal and 3H-Thymidine uptake was measured as counts per minute (CPM) using a microplate scintillation counter.
The T cell proliferation results after the first round of in vitro stimulation with the cocktail of fsp2 and fsp4 peptides are presented as stimulation index (SI) in FIG. 10. SI=mean CPM (triplicates) of (T cells+APC+test peptide(s)) divided by mean CPM (triplicates) of (T cells+APC). SI≥2 is a clear signal of immunogenicity.
PBMCs harvested after the first in vitro stimulation were re-stimulated in vitro according to the protocol set out above, with 2×10^6 cells per well. T-cell proliferation was tested according to the protocol set out above.
The T cell proliferation results after a second round of in vitro stimulation with the cocktail of fsp2 and fsp4 peptides are presented as stimulation index (SI) in FIG. 11.

The nature of another data set: Peptide solubility. The class given is physicochemical. Here is the method: The peptide was difficult to dissolve and it was attempted to dissolve the crude fsp5 (SEQ ID NO: 3) (˜150 mg) in approximately 4 ml 50% MeCN in water under gentle heating.
Another batch of fsp5 (SEQ ID NO: 3) was prepared, dissolved in neat DMSO under gentle heating and purified by preparative HPLC. Again, only very small amounts of purified fsp5 (SEQ ID NO: 3) were obtained.

A short description of data set [3]: Peptide stability (purity by UPLC after lyophilisation or storage). The data set is classed as physicochemical. The conditions noted are these: purified peptide, dropped from around 90% before lyophilisation. Here is the method:
A batch of fsp5 (SEQ ID NO: 3) was prepared by solid phase peptide synthesis (SPPS) by using FMOC chemistry and Prelude synthesizer (Gyros Protein Technologies Inc., USA). The crude peptide was analysed by UPLC and MS. […] UPLC system: Column; Acquity UPLC BEH C18 […], […], detection; PDA 210-500 nm, solvent A); 0.1% TFA in water, solvent B; 0.1% TFA in MeCN, gradient: 20-70% B (2-10 minutes, linear).
When the purity of the small amount of purified fsp5 (SEQ ID NO: 3) was reassessed by UPLC after lyophilisation, the purity had dropped from around 90% to below 50% as shown in FIG. 4.

Data set [4] deals with T-cells from PMBCs from four healthy donors. Nature of the data set: T-cell proliferation (stimulation index) after induction of PBMC with fsp2, fsp8 and fsp9 mixture. The data set is classed as cell-based, human. Conditions: for Immunogenicity (T-cell proliferation, stimulation index): first round of stimulation, T-cells induced with fsp2+fsp8+fsp9, FIG. 13. Here is the method:
The same protocol as that set out in Example 7 was used to test the immunogenicity of fsp6 and fsp7 (SEQ ID NO: 26 and SEQ ID NO: 27, respectively), except for the peptide mixture used to induce T-cells from PMBCs from fresh buffy coats from four healthy donors. The peptide mixture used in this Example to induce T-cells from PMBCs was made up of fsp2 (SEQ ID NO: 5; 10 μM), fsp8 (SEQ ID NO: 31; 10 μM) and fsp9 (SEQ ID NO: 32; 10 μM). Fsp8 (SEQ ID NO: 31; […]) is a peptide of ASTE1 having a −1a frameshift mutation, and fsp9 (SEQ ID NO: 32; […]) is a peptide of TAF1β having a −1a frameshift mutation.
At day 14 after induction, a T-cell proliferation assay was carried out as in Example 7, using fsp2 (SEQ ID NO: 5), fsp6 (SEQ ID NO: 26) and fsp7 (SEQ ID NO: 27) as test peptides. As fsp8 and fsp9 have very different amino acid sequences from fsp2, only fsp2 would be able to induce T-cells which are capable of recognising and being stimulated by fsp2, fsp6 and fsp7. […] Two further rounds of T-cell stimulation were also carried out, with a T-cell proliferation assay being carried out 14 days after each stimulation.
The T-cell proliferation results after the first round of in vitro stimulation are presented as stimulation index (SI) in FIG. 13. […] It is also expected, in view of the results shown in FIGS. 11 and 12, that a peptide having the sequence of fsp6 (SEQ ID NO: 26) but having an amino acid substitution corresponding to that in fsp2, and particularly a C-to-G amino acid substitution as in fsp2, is also immunogenic and is useful as a vaccine or treatment against cancer. […] Thus, it is expected that fsp6a (SEQ ID NO: 28), which is identical to fsp6 (SEQ ID NO: 26) except for the same C-to-G amino acid substitution as fsp2 (SEQ ID NO: 5), will also be immunogenic.

Data set [5] has as its system CTLs (HLA-A2.1 restricted). The conditions noted are these: cited from earlier work.
A further data set deals with T-cells. The conditions noted are these: after four rounds of stimulation of the T-cells; cited from earlier work.
The next data set deals with CTL. Conditions: cited from earlier work.
Data set [6] has as its system colorectal cancer cell line HCT116. Conditions: cell line carries the corresponding frameshift mutation; cited from earlier work.
[7] abbreviates: patients recognising the peptide.

On to “AMTTSSSQKNITPAILTCC [p537, prior art peptide of mutTGFβR2]”, for which the “Immunogenicity (Saeterdal, PNAS)” value in data set [1] is listed as “not immunogenic”.
For “KCIMKEKKSLVRLSSCVPVALMSA (listed as Homo sapiens) [fsp1]”, in data set [2], the “Immune response of Donor 3” value is “showed an immune response”; the “Immunogenicity relative to fsp3 and fsp4” value is “more immunogenic”; the “Immunogenicity (T cell proliferation, stimulation index)” value is reported as “immunogenic”.
Regarding “KCIMKEKKSLVRLSSCVPVALMSAMTTSSSQKN (listed as Homo sapiens) [fsp5]”, the “Solubility: effect of water on crude DMSO solution” value in the data set “Peptide solubility” (addition of even small amounts of water to crude DMSO solution) was “precipitation of the peptide”. Also, in the data set “Peptide solubility” (crude peptide ~150 mg in approximately 4 ml 50% MeCN in water under gentle heating), the Solubility entry is “no clear solution could be obtained”. Besides, in data set [2], the “Immunogenicity relative to fsp3 and fsp4” value was “more immunogenic”; the “Immunogenicity (T cell proliferation, stimulation index)” value is listed as “immunogenic”. The “Purity by UPLC after lyophilisation (stability)” value in [3] is “below 50%”.
Regarding “KGIMKEKKSLVRLSSCVPVALMSA (not fully specified) [fsp2]”, the “Immunogenicity relative to fsp7” value in data set [4] (FIG. 13) is given as “much more immunogenic”. Moreover, in data set [2], the “Immune response of Donor 3” value was “showed an immune response”; the “Immunogenicity relative to fsp3 and fsp4” value was “more immunogenic”; the “Immunogenicity (T cell proliferation, stimulation index)” value is listed as “immunogenic”.
Turning to “PKCIMKEKKKSLVRLSSCV [p541, prior art peptide of mutTGFβR2]”, in data set [1], the “Immunogenicity (Saeterdal, PNAS)” value is “immunogenic” and the “Induction of T-cell responses in patients” value is recorded as “able to induce T-cell responses in some patients”.
For the substance “RLSSCVPVA [p573, prior art peptide of mutTGFβR2]”, the “Activation of specific CTLs in vitro” value in data set [5] (HLA-A2.1 restricted) is reported as “capable of activating specific CTLs”. The “Immunogenicity (FIG. 1 of Linnebacher et al.)” value in data set [5] is listed as “immunogenic”. In the data set with T-cells, the “Immunogenicity (FIG. 14 of EP1078000)” value is given as “not immunogenic”. Moreover, in the data set on CTL, the “Generation of CTL line and clones” value is “able to generate a CTL line and several CTL clones”; the “Immunogenicity (Saeterdal, Cancer Immunol Immunother)” value is “immunogenic”. Moreover, in data set [6], the “Lysis of HCT116” value is listed as “able to lyse”.
With “SLVRLSSCV [p523, prior art peptide of mutTGFβR2]”, the “Immunogenicity (FIG. 1 of Linnebacher et al.)” value in data set [5] is “not immunogenic”. The “Immunogenicity (FIG. 14 of EP1078000)” value in the data set with T-cells was “immunogenic”.
In the case of “SLVRLSSCVPVALMSAMTTSSSQ [p538, prior art peptide of mutTGFβR2]”, the “Immunogenicity (Saeterdal, PNAS)” value in data set [1] was “highly immunogenic”. Also, in data set [1] (setting [7]), the “Recognition by patients having spontaneous MSI+ colon cancer” value is “two of three” and the “Recognition by patients with HNPCC” value was “all three”.
Take “SPKCIMKEKKSLVRLSSCVPVA [P540, prior art peptide of mutTGFβR2]”: in data set [1], the “Immunogenicity (Saeterdal, PNAS)” value is recorded as “immunogenic” and the “Induction of T-cell responses in patients” value is listed as “able to induce T-cell responses in some patients”.
In the case of “SSGVPVALMSAMTTSSSQKN (also: 2TFA salt) [fsp4]”, the “Immunogenicity (T cell proliferation, stimulation index)” value in data set [2] is reported as “immunogenic”.
Regarding “fsp6: Peptide of SEQ ID NO: 26; same sequence as fsp2 but truncated at the C-terminus and without C-to-G substitution (KCIMKEKKSLVRLSSCV; listed as Homo sapiens)”, in data set [4] (FIG. 13), the “Immunogenicity relative to fsp2” value was “less immunogenic” and the “Immunogenicity relative to fsp7” value was “much more immunogenic”. In addition, in data set [4], the “Immunogenicity (T-cell proliferation, stimulation index)” value is on record as “immunogenic”.
Take “fsp7: Peptide of SEQ ID NO: 27; same amino acid sequence as fsp2 but truncated at the N-terminus (VRLSSCVPVALMSA; listed as Homo sapiens)”: the “Immunogenicity (T-cell proliferation, stimulation index)” value in data set [4] was “too truncated at the N-terminus compared to fsp2 (SEQ ID NO 5) to be immunogenic”.
